In ChEMBL document CHEMBL4052789, “Essential structure of orexin 1 receptor antagonist YNT-707, Part I: Role of the 4,5-epoxy ring for binding with orexin 1 receptor” (Bioorg Med Chem Lett, 2017):
Active and inactive are the calls of the source. The calls are words filed in the database; no cut-off is given here.

Key:
Orexin receptor type 2 = biological target: T1, Orexin receptor type 2 (Homo sapiens, UniProt O43614); assay: Antagonist activity at human OX2R expressed in CHOK1 cells assessed as inhibition of orexin A-induced intracellular Ca2+ release preincubated for 15 mins followed by orexin A addition by Fura 2-AM dye based fluorescence assay; type: functional, cell-based
T1 sequence (O43614 whole entry): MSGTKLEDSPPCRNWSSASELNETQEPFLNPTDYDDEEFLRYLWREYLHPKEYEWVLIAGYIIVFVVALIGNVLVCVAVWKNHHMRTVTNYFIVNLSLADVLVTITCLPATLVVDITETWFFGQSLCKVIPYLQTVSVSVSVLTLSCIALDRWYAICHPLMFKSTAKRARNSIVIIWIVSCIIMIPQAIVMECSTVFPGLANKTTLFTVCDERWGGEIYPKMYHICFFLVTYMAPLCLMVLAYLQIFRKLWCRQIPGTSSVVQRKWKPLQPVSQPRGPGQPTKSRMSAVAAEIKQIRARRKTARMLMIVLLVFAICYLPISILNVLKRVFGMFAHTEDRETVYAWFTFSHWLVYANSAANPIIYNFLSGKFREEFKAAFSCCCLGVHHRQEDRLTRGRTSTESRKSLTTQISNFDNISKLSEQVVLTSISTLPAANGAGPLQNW

[1] = biological target: T2, Orexin/Hypocretin receptor type 1 (Homo sapiens, UniProt O43613); assay: (§1) Antagonist activity at human OX1R expressed in CHOK1 cells assessed as inhibition of orexin A-induced intracellular Ca2+ release preincubated for 15 mins followed by orexin A addition by Fura 2-AM dye based fluorescence assay; type: functional, cell-based
T2 sequence (O43613 whole entry): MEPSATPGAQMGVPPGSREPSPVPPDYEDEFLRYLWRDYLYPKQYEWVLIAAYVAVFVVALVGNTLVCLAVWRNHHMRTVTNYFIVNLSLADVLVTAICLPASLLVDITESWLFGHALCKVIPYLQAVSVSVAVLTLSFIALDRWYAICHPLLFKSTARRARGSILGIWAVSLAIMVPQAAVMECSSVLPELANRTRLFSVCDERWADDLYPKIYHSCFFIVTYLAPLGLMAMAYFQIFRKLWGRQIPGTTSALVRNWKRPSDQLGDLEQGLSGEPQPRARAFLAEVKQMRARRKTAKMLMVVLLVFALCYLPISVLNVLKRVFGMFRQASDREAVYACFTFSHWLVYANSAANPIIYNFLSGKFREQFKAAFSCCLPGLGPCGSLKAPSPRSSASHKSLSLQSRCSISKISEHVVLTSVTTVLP

Homo sapiens = species on record: Homo sapiens; assay: Selectivity ratio of Ki for human OX2R to Ki for human OX1R
[2] = biological target: T3, Orexin/Hypocretin receptor type 1 (Homo sapiens) (UniProt O43613); assay: as §1; type: functional, cell-based
T3 sequence (whole entry): T2 sequence (O43613 whole entry)

SMILES	IC50 (Orexin receptor type 2) [µM]	Ki [1] [µM]	other results
CN(C(=O)/C=C/c1ccoc1)[C@@H]1CC[C@@]2(O)[C@H]3Cc4cccc5c4[C@@]2(CCN3S(=O)(=O)c2ccccc2)[C@H]1O5	≥ 10		IC50 [1]: 1.91 µM
COc1ccc2c3c1O[C@H]1[C@@H](N(C)C(=O)/C=C/c4ccoc4)CC[C@@]4(O)[C@@H](C2)N(S(=O)(=O)c2ccccc2)CC[C@]314	> 10	0.849	
COc1ccc2c(c1)[C@]13CCN(S(=O)(=O)c4ccccc4)[C@H](C2)[C@]1(O)CC[C@H](N(C)C(=O)/C=C/c1ccoc1)C3		0.0112	Ki (Orexin receptor type 2): 0.294 µM; Ratio Ki (Homo sapiens): 26.1
COc1ccc2c(c1)[C@]13CCN(S(=O)(=O)c4ccccc4)[C@H](C2)[C@]1(O)CC[C@@H](N(C)C(=O)/C=C/c1ccoc1)C3	> 10	0.0316	
COc1ccc2c3c1O[C@H]1[C@H](N(C)C(=O)/C=C/c4ccoc4)CC[C@@]4(O)[C@@H](C2)N(S(=O)(=O)c2ccccc2)CC[C@]314	> 10		
CN(C(=O)/C=C/c1ccoc1)[C@@H]1CC[C@@]2(O)[C@H]3Cc4ccc(OCc5ccccc5)c5c4[C@@]2(CCN3S(=O)(=O)c2ccccc2)[C@H]1O5			inhibition [2]: inactive
